We go through 5 compounds from patent US10391070B2, “Compositions and methods for treating neurological diseases or injury” (MUSC FOUNDATION FOR RESEARCH DEVELOPMENT, priority 2012, dated 2019).

Assay [1] relates to c-fos. As to the kind of experiment: c-fos gene expression in PTZ-treated zebrafish larvae. The class given is in vivo, zebrafish (Danio rerio). The conditions noted are these: 7 dpf zebrafish; for reduction of c-fos gene expression compared to PTZ alone: concentrations of Table 9. The method, then: Ten 7 dpf larvae were placed in 500 μL tank water in wells of a 48-well cell-culture plate and appropriate concentrations of drugs were added as in the behavior study (Table 9). After a 1 h pre-incubation period, PTZ was added to a final concentration of 15 mM in appropriate wells and larvae were incubated for a further 45 min. Fish were quickly euthanized by incubating the plate in an ice-water bath for 15 min. Fish were removed from each well and all liquid removed before freezing at −80° C. RNA was extracted using Trizol (Invitrogen) followed by the RNeasy Mini kit (Qiagen). Frozen embryos were homogenized in 800 μL Trizol using in-tube pestles and a motorized homogenizer. Following a 5-min incubation at room temperature, 200 μL chloroform was added and the samples were centrifuged at 12,000 g for 10 min. The aqueous phase was transferred to a new tube and 250 μL 100% ethanol was added and the samples mixed. This mixture was then transferred to the Qiagen minicolumn assembly and the protocol followed as described with the kit. Samples were eluted in 30 μL RNase free water and concentration was determined using the Nanodrop instrument (Thermo Fisher). cDNA was prepared using the RETROscript kit (Ambion) with 500 ng total RNA. cDNA was then diluted 1:1 with sterile dH2O and 2.5 μL of this cDNA was used in the QPCR reaction with SsoAdvanced SYBR Green Supermix (BioRad) and c-fos primers designed to span an intron-exon junction (c-fos F: […], SEQ ID NO:9; c-fos R: […], SEQ ID NO:10) ([…] each) in the BioRad CFX96 RealTime instrument. L13a and EF1a gene expression were used for normalization (Rahn et al., 2013). The following cycle conditions were used: 95° C./3 min, 40 cycles of 95° C./15 s, 62° C./30 s, followed by 95° C. 30 s and a dissociation curve. Samples were run in duplicate. The 2^−ΔΔCt method was used to quantify gene expression, whereby all gene Ct values were first normalized to Ct values of the geometric mean of the Ct of L13a and EF1a (Livak and Schmittgen, 2001). Treated samples were then normalized to the tank water control and converted to fold change.

Assay [2] relates to HT22 cells. As to the kind of experiment: Intracellular ROS measurement (Rho123, CM-H2DCFDA). The class given is cell-based, mouse. The conditions noted are these: HT22, 10 mM glutamate 8 hrs, 250 nM. On the procedure: Intracellular generation of ROS was evaluated by spectrofluorometry using the membrane-permeable compound dihydrorhodamine 123 (Rho123; Invitrogen), and images were collected using 5-(and -6)-chloromethyl-2′,7′-dichlorodihydrofluorescein diacetate, acetyl ester (CM-H2DCFDA; Invitrogen). Briefly, HT-22 cells were seeded onto black walled 96-well plates at 5.0×10^3 cells per well in 75 μL of medium and maintained at 37° C. in 5% CO2 overnight prior to the initiation of experimental treatments. Cells were subsequently treated with 25 μL of medium containing glutamate (monosodium glutamate, Sigma, 1 M stock concentration in media, to achieve a final concentration of 10 mM) plus inhibitors (stock in DMSO) and maintained at 37° C. in 5% CO2. After 8 hrs, Rho123 (5 μM), CM-H2DCFDA (1 μM), or MitoSox (5 μM) and Mitotracker DR (10 nM) was added to achieve the indicated final concentrations. Cells were allowed to incubate for 20 minutes and then washed twice with Hanks Balanced Salt Solution (HBSS; Hyclone; CaCl2 1.26 mM, MgCl2-6H2O 0.493 mM, MgSO4-7H2O 0.407 mM, KCl 5.33 mM, KH2PO4 0.441 mM, NaHCO3 4.17 mM, NaCl 137.93 mM, Na2HPO4 0.338 mM, D-Glucose 5.56 mM), with a final addition of 100 μL of HBSS in which the cells were visualized. Fluorescence of the oxidized Rho123 was measured using a Fluoroskan Ascent spectrofluorometer (Labsystems). Peak excitation and emission wavelengths were 500 and 536, respectively. For fluorescent imaging of the oxidation product of CM-H2DCFDA, cells were immediately visualized using an InCell 2000 Analyzer (GE) with a 40× objective and a FITC excitation/emission filter set. Image processing was performed using ImageJ, and for all images, the microscope and image processing settings, such as levels, brightness, contrast, and exposure time were held constant across all treatment conditions.

As to `C#CCNC1=CC(=O)c2ccccc2C1=O` [Compound 2h, 2-(prop-2-yn-1-ylamino)naphthalene-1,4-dione], in assay [1], the “reduction of c-fos gene expression compared to PTZ alone” value is listed as “about half”. As for `O=C1C=C(NCc2ccccc2)C(=O)c2ccccc21` [Compound 2j, 2-(benzylamino)naphthalene-1,4-dione], in assay [2], the “ROS accumulation (Rho123)” value is “prevent the accumulation of ROS”. The “reduction of c-fos gene expression compared to PTZ alone” value in assay [1] is recorded as “about half”.

For the compound `O=C1C=C(NCc2cccc(Cl)c2)C(=O)c2ccccc21` [Compound 2q, 2-((3-chlorobenzyl)amino)naphthalene-1,4-dione], the “ROS accumulation (Rho123)” value in assay [2] was “prevent the accumulation of ROS”. In assay [1], the “reduction of c-fos gene expression compared to PTZ alone” value is recorded as “about half”. Regarding `CC1=CC(=O)c2ccccc2C1=O` [VK3, menadione, reference compound], in assay [1] (6 μM pre-treatment), the “fold reduction of c-fos gene expression compared to PTZ alone” value was “approximately 10 fold”.

On to menaquinones [VK2, reference compound], for which the “ROS accumulation (Rho123)” value in assay [2] is reported as “less effective”.
